Test results from ChEMBL document CHEMBL1154879, “Discovery of (thienopyrimidin-2-yl)aminopyrimidines as potent, selective, and orally available pan-PI3-kinase and dual pan-PI3-kinase/mTOR inhibitors for the treatment of cancer” (J Med Chem, 2010).
Activity calls are given as the source filed them. The calls are words filed in the database; no cut-off is given here.

Experiments:
[1] = target: Phosphatidylinositol 4-kinase beta (Homo sapiens) (UniProt Q9UBF8); experiment: Inhibition of PI4Kbeta at 1 uM
Chain of Phosphatidylinositol 4-kinase beta (Homo sapiens) (Q9UBF8 2-816 limits assumed): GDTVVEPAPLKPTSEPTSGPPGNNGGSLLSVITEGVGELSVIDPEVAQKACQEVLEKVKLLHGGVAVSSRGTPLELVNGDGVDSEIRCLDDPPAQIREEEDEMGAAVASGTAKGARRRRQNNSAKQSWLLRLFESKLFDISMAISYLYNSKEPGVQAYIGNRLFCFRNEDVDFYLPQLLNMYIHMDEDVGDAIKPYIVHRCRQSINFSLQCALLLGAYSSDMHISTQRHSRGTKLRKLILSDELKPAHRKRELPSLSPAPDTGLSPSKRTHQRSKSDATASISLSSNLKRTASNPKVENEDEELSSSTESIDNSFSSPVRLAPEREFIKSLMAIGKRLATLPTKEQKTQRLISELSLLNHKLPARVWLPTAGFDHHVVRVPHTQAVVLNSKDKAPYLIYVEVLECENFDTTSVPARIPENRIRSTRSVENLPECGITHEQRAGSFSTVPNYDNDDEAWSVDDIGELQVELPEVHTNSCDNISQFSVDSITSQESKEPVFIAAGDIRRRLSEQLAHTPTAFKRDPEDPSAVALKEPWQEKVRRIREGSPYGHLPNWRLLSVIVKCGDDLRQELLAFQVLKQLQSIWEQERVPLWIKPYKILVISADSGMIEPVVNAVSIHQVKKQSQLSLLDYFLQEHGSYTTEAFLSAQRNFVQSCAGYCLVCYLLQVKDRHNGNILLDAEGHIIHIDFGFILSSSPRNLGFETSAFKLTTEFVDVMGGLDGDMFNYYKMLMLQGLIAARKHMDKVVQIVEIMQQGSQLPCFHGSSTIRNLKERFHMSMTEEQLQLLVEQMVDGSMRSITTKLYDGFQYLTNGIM

[2] = tested on: Mus musculus; experiment: Inhibition of PI3K/Akt/mTOR pathway signaling in PI3Kalpha mutant expressing human MCF7.1 cells xenografted nu/nu mouse assessed as inhibition of Akt Ser473 phosphorylation at 6.25 mg/kg, po qd for 21 days measured 4 hrs after last administered dose on day 21 by electrochemiluminescence assay; format: functional
[3] = tested on: Mus musculus; experiment: Inhibition of PI3K/Akt/mTOR pathway signaling in PI3Kalpha mutant expressing human MCF7.1 cells xenografted nu/nu mouse assessed as inhibition of Akt Ser473 phosphorylation at 25 mg/kg, po qd for 21 days measured 1 hr after last administered dose on day 21 by electrochemiluminescence assay; format: functional
[4] = tested on: Mus musculus; experiment: Inhibition of PI3K/Akt/mTOR pathway signaling in PI3Kalpha mutant expressing human MCF7.1 cells xenografted nu/nu mouse assessed as inhibition of Akt Ser473 phosphorylation at 25 mg/kg, po qd for 21 days measured 4 hrs after last administered dose on day 21 by electrochemiluminescence assay; format: functional
[5] = tested on: Mus musculus; experiment: Inhibition of PI3K/Akt/mTOR pathway signaling in PI3Kalpha mutant expressing human MCF7.1 cells xenografted nu/nu mouse assessed as inhibition of Pras40 Thr246 phosphorylation at 6.25 mg/kg, po qd for 21 days measured 4 hrs after last administered dose on day 21 by ELISA; format: functional
[6] = tested on: Mus musculus; experiment: Inhibition of PI3K/Akt/mTOR pathway signaling in PI3Kalpha mutant expressing human MCF7.1 cells xenografted nu/nu mouse assessed as inhibition of Pras40 Thr246 phosphorylation at 12.5 mg/kg, po qd for 21 days measured 1 hr after last administered dose on day 21 by ELISA; format: functional
[7] = tested on: Mus musculus; experiment: Inhibition of PI3K/Akt/mTOR pathway signaling in PI3Kalpha mutant expressing human MCF7.1 cells xenografted nu/nu mouse assessed as inhibition of Pras40 Thr246 phosphorylation at 12.5 mg/kg, po qd for 21 days measured 4 hrs after last administered dose on day 21 by ELISA; format: functional
[8] = tested on: Mus musculus; experiment: Inhibition of PI3K/Akt/mTOR pathway signaling in PI3Kalpha mutant expressing human MCF7.1 cells xenografted nu/nu mouse assessed as inhibition of Pras40 Thr246 phosphorylation at 25 mg/kg, po qd for 21 days measured 4 hrs after last administered dose on day 21 by ELISA; format: functional
[9] = Antitumor activity against human MCF7.1 cells expressing PI3Kalpha mutant xenografted in nu/nu mouse assessed as inhibition of tumor growth at 6.25 mg/kg, po qd for 21 days; format: functional; conditions: MCF7.1, 504 h, read-out: TGI
[10] = tested on: Mus musculus; experiment: Toxicity in human MCF7.1 cells expressing PI3Kalpha mutant xenografted nu/nu mouse assessed as body weight loss at 12.5 mg/kg, po qd for 21 days; format: organism-based; design: dose 12.5 mg/kg, route oral; conditions: in vivo, 504 h
[11] = tested on: Mus musculus; experiment: Toxicity in human MCF7.1 cells expressing PI3Kalpha mutant xenografted nu/nu mouse assessed as body weight loss at 50 mg/kg, po qd for 21 days; format: organism-based; design: dose 50 mg/kg, route oral; conditions: in vivo, 504 h
[12] = tested on: Mus musculus; experiment: Inhibition of PI3K/Akt/mTOR pathway signaling in PI3Kalpha mutant expressing human MCF7.1 cells xenografted nu/nu mouse assessed as inhibition of S6RP Ser235/236 phosphorylation at 25 mg/kg, po qd for 21 days measured 1 hr after last administered dose on day 21 by electrochemiluminescence assay; format: functional
[13] = tested on: Mus musculus; experiment: Inhibition of PI3K/Akt/mTOR pathway signaling in PI3Kalpha mutant expressing human MCF7.1 cells xenografted nu/nu mouse assessed as inhibition of S6RP Ser235/236 phosphorylation at 25 mg/kg, po qd for 21 days measured 4 hrs after last administered dose on day 21 by electrochemiluminescence assay; format: functional
[14] = target: Tyrosine-protein kinase SYK (Homo sapiens, UniProt P43405); experiment: Inhibition of SYK
[15] = tested on: PC-3; experiment: Antiproliferative activity against human PC3 cells deficient in PTEN in after 3 to 4 days; format: functional, cell-based
[16] = Clearance in nu/nu mouse at 1 mg/kg, iv; format: ADME, organism-based; design: dose 1 mg/kg, route intravenous; conditions: in vivo
[17] = Volume of distribution at steady state in nu/nu mouse at 1 mg/kg, iv; format: ADME, organism-based; design: dose 1 mg/kg, route intravenous; conditions: in vivo, read-out: Vdss
[18] = target: Serine/threonine-protein kinase mTOR (Homo sapiens, UniProt P42345)
[19] = target: Phosphatidylinositol 4,5-bisphosphate 3-kinase catalytic subunit alpha isoform (Homo sapiens, UniProt P42336)
Chain of Phosphatidylinositol 4,5-bisphosphate 3-kinase catalytic subunit alpha isoform (P42336 whole entry, canonical isoform): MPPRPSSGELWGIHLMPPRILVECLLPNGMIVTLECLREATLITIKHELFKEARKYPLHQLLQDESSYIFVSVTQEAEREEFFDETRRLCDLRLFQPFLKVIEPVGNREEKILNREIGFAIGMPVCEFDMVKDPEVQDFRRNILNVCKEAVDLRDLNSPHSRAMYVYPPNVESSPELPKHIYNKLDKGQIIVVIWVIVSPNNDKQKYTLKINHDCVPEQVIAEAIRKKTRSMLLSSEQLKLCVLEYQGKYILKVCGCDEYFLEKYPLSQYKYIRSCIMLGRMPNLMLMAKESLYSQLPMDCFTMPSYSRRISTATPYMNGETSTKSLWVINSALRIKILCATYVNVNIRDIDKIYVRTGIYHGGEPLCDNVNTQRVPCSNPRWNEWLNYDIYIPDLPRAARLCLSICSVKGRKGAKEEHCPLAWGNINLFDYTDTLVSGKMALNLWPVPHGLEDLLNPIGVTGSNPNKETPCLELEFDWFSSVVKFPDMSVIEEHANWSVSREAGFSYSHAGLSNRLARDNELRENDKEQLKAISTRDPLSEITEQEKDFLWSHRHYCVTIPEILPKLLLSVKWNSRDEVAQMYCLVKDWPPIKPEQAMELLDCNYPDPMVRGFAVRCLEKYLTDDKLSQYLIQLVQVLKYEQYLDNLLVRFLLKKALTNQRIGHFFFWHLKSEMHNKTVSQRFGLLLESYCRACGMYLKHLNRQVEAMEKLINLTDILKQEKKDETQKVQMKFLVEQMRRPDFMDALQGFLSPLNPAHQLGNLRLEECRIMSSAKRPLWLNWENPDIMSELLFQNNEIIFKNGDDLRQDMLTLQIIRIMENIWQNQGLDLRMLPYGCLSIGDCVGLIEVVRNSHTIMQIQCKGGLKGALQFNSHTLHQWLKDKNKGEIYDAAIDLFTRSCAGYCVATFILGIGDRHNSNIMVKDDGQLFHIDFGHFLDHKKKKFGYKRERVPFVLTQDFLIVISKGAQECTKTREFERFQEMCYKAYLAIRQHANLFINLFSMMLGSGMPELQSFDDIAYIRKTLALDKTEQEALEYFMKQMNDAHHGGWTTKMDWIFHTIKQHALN

[20] = target: T1, Phosphatidylinositol 4,5-bisphosphate 3-kinase catalytic subunit delta isoform (Homo sapiens, UniProt O00329)
T1 sequence (O00329 whole entry): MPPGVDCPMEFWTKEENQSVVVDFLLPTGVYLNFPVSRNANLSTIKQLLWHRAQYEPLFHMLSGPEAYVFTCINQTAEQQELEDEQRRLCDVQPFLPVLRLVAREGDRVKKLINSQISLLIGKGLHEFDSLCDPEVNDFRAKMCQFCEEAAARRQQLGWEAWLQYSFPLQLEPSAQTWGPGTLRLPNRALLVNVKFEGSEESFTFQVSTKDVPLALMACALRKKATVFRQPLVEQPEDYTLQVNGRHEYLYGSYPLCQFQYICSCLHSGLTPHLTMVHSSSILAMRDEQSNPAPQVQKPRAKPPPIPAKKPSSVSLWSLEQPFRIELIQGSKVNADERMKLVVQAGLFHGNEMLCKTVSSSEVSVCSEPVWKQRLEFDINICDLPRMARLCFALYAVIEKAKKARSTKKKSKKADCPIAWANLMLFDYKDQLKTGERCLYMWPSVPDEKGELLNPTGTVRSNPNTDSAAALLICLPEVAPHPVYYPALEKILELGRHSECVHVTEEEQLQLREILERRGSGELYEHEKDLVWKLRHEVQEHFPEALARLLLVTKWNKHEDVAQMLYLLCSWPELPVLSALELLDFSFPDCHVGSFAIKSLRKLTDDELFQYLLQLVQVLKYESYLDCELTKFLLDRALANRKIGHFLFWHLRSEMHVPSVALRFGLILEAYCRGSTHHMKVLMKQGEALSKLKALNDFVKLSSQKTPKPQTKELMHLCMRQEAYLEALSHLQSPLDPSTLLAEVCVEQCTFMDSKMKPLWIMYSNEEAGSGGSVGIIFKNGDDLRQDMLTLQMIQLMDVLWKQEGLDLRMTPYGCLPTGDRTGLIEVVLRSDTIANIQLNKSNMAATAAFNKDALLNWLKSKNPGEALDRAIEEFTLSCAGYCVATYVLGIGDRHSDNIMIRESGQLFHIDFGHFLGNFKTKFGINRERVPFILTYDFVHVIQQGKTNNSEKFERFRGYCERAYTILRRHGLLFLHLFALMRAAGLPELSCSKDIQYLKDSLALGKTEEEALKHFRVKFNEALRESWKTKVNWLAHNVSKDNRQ

[21] = target: Phosphatidylinositol 4,5-bisphosphate 3-kinase catalytic subunit gamma isoform (Homo sapiens, UniProt P48736)
Chain of Phosphatidylinositol 4,5-bisphosphate 3-kinase catalytic subunit gamma isoform (P48736 whole entry, canonical isoform): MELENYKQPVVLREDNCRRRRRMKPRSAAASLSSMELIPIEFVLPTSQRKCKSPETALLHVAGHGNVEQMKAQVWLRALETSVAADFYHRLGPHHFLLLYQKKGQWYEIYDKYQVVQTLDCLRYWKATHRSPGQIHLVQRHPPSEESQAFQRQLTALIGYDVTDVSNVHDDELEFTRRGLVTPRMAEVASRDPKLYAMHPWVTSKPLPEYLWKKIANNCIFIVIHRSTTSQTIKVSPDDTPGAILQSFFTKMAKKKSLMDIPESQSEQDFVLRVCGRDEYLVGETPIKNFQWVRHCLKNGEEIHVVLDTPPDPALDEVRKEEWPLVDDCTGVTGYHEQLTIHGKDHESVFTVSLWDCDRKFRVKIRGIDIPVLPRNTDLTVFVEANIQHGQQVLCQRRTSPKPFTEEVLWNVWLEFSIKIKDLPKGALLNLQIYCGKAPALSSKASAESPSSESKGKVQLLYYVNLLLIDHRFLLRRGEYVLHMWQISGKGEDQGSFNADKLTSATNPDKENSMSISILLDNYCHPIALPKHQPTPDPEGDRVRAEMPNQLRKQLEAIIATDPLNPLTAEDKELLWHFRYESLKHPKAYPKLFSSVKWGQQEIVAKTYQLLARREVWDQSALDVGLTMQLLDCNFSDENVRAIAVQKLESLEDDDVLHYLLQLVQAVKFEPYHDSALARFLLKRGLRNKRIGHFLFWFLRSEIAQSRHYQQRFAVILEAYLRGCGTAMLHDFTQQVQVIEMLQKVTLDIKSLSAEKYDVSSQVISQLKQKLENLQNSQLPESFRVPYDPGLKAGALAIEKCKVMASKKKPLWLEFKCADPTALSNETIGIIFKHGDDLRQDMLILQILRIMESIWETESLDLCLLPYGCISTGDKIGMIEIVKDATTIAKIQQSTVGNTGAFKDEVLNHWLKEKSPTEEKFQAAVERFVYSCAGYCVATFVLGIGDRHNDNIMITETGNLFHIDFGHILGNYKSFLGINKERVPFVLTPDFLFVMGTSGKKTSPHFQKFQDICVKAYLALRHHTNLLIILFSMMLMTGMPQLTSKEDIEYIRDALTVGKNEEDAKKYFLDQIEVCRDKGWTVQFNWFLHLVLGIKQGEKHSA

- inhibition [1]: inactive
- IC50 [14]: > 1000 nM
- IC50 [15]: 490 nM
- clearance [16]: 51 mL/min/kg
- Vd [17]: 3 L/kg
- IC50 [18]: 750 nM
- IC50 [19]: 3.5 nM
- IC50 [20]: 5.2 nM
- IC50 [21]: 15 nM
Structure (SMILES): Cc1nc(N)ncc1-c1nc(N2CCOCC2)c2sc(C(C)(C)O)cc2n1
- inhibition in vivo at 6.25 mg/kg [2]: 43%
- inhibition in vivo at 25 mg/kg [3]: 82%
- inhibition in vivo at 25 mg/kg [4]: 66%
- inhibition in vivo at 6.25 mg/kg [5]: 54%
- inhibition in vivo at 12.5 mg/kg [6]: 100%
- inhibition in vivo at 12.5 mg/kg [7]: 90%
- inhibition in vivo at 25 mg/kg [8]: 95%
- inhibition in vivo at 6.25 mg/kg [9]: 28%
- Activity [10]: Non-toxic
- Activity [11]: Non-toxic
- inhibition in vivo at 25 mg/kg [12]: 74%
- inhibition in vivo at 25 mg/kg [13]: 63%
